IC50 data for 23 compounds are collected here from patent US7217730B2, “Method for the use of pyranoindole derivatives to treat infection with Hepatitis C virus” (Wyeth, priority 2002, dated 2007).

The target in assay [1] is BB7 (RNA-dependent RNA polymerase hepatitis C virus protein sequence derived from HCV replicon) (Hepatitis C virus genotype 1b, UniProt Q9WMX2). Nature of the assay: Hepatitis C polymerase inhibition, BB7 sequence. The format is biochemical. To be noted: Table 1B.
Assay [2] addresses T1, NS5B from the BK strain (genotype 1b) (Hepatitis C virus genotype 1b, UniProt P26663).
T1 construct: NS5B from the BK strain (genotype 1b) is expressed in E. coli as a protein in which the 21 C-terminal amino acids are replaced; made in house; host or cells: E. coli
Nature of the assay: Hepatitis C polymerase inhibition, NS5B BK strain, 33P-GTP filter assay. The format is biochemical. To be noted: Table 1B; NS5B BK strain; read-out: BK IC50. An outline of the steps:
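Radiolabelled RNA synthesis was measured by filter capture and scintillation counting after EDTA stop. His-tagged, C-terminally truncated (Δ21) genotype 1b BK NS5B from E. coli, pre-exposed to compound for 15 min, copied a self-primed RNA template (~3 nM) with α-[33P]-GTP for 2 h at room temperature.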

T1 sequence (P26663 2420-2989): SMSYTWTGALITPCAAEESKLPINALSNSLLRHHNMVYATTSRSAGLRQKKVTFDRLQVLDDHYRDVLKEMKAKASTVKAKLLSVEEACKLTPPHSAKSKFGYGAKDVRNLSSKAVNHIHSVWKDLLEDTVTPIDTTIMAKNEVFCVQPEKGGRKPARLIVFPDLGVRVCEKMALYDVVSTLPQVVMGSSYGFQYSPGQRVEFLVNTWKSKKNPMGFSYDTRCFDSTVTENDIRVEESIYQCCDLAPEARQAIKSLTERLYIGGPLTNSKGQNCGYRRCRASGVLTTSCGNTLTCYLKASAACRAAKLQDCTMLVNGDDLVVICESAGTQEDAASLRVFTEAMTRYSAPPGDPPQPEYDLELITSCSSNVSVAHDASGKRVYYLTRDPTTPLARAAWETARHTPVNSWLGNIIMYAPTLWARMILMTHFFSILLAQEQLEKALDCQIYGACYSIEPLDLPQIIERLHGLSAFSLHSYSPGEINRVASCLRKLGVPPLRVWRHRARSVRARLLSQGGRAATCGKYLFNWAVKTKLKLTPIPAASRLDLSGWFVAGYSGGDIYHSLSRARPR
BB7 (RNA-dependent RNA polymerase hepatitis C virus protein sequence derived from HCV replicon), sequence (Q9WMX2 2420-3010): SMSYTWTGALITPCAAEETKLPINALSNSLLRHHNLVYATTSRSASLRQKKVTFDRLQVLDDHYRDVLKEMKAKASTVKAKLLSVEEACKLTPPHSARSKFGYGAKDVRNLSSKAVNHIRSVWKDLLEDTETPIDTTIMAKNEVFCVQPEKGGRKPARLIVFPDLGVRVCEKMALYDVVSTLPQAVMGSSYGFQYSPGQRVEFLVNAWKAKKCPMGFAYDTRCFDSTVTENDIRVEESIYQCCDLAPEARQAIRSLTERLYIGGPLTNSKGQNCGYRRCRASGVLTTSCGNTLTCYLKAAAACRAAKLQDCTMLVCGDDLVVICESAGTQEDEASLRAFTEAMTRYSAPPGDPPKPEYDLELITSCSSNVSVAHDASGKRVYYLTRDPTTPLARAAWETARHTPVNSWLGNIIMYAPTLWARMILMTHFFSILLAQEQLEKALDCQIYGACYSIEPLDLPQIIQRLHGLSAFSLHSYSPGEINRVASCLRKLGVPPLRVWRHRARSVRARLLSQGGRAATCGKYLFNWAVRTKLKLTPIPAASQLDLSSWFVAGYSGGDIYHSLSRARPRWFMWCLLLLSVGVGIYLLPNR

Broadly, the IC50 is the concentration that gives 50% inhibition. With `Cc1ccc(C#N)c2c3c([nH]c12)C(C(=O)O)(C1CCC1)OCC3` (stereo not shown) [Example 338, (5-cyano-1-cyclobutyl-8-methyl-1,3,4,9-tetrahydropyrano[3,4-b]indol-1-yl)carboxylic acid], the IC50 was 3900 nM in assay [1] and 3300 nM in assay [2].

Turning to `CCCC1(C(=O)O)OCCc2c1[nH]c1c(C)cc(F)c(C#N)c21` (stereo not shown) [Example 339, (5-cyano-6-fluoro-8-methyl-1-propyl-1,3,4,9-tetrahydropyrano[3,4-b]indol-1-yl)carboxylic acid], the IC50 came to 2800 nM in assay [1] and 490 nM in assay [2].

With `CCCC1(C(=O)O)OCCc2c1[nH]c1c(CC)ccc(C#N)c21` (stereo not shown) [Example 340, (5-cyano-8-ethyl-1-propyl-1,3,4,9-tetrahydropyrano[3,4-b]indol-1-yl)carboxylic acid], the 50% inhibitory concentration (IC50) in assay [1] is over 28000 nM; in assay [2], over 30000 nM.

For the compound `CCCC1(C(=O)O)OCCc2c1[nH]c1c(Cl)ccc(C#N)c21` (stereo not shown) [Example 341, (8-chloro-5-cyano-1-propyl-1,3,4,9-tetrahydropyrano[3,4-b]indol-1-yl)carboxylic acid], the IC50 is 3600 nM in assay [1] and 1700 nM in assay [2].

As to `CCCC1(C(=O)O)OCCc2c1[nH]c1c(F)ccc(C#N)c21` (stereo not shown) [Example 342, (5-cyano-8-fluoro-1-propyl-1,3,4,9-tetrahydropyrano[3,4-b]indol-1-yl)carboxylic acid], the concentration for half-maximal inhibition (IC50) was found to be 10000 nM in assay [1] and 1700 nM in assay [2].

As for `CCC[C@@]1(C(=O)O)OCCc2c1[nH]c1c(F)ccc(C#N)c21` [Example 343, (1R)-(5-cyano-8-fluoro-1-propyl-1,3,4,9-tetrahydropyrano[3,4-b]-indol 1-yl)carboxylic acid], the IC50 in assay [1] and in assay [2] was over 30000 nM throughout.

With `CCCCC1(C(=O)O)OCCc2c1[nH]c1c(F)ccc(C#N)c21` (stereo not shown) [Example 345, (1-butyl-5-cyano-8-fluoro-1,3,4,9-tetrahydropyrano[3,4-b]indol-1-yl)carboxylic acid], the 50% inhibitory concentration (IC50) stood at 6200 nM in assay [1] and 3400 nM in assay [2].

As for `C=CCCC1(C(=O)O)OCCc2c1[nH]c1c(F)ccc(C#N)c21` (stereo not shown) [Example 346, [1-(3-butenyl)-5-cyano-8-fluoro-1,3,4,9-tetrahydropyrano[3,4-b]indol-1-yl]carboxylic acid], the IC50 is 8000 nM in assay [1] and 6100 nM in assay [2].

Consider `N#Cc1ccc(F)c2[nH]c3c(c12)CCOC3(C(=O)O)C1CCCC1` (stereo not shown) [Example 350, (5-cyano-1-cyclopentyl-8-fluoro-1,3,4,9-tetrahydropyrano[3,4-b]indol-1-yl)carboxylic acid], for which the IC50 in assay [1] and in assay [2] was over 30000 nM throughout.

In the case of `N#Cc1ccc(F)c2[nH]c3c(c12)CCOC3(C(=O)O)C1CCCCC1` (stereo not shown) [Example 351, (5-cyano-1-cyclohexyl-8-fluoro-1,3,4,9-tetrahydropyrano[3,4-b]indol-1-yl)carboxylic acid], the IC50 in assay [1] and in assay [2] was over 30000 nM each time.

With `CCCC1(CC(=O)O)OCCc2c1[nH]c1c(C)c(C(=O)O)cc(C#N)c21` (stereo not shown) [Example 353, 1-carboxymethyl-5-cyano-8-methyl-1-propyl-1,3,4,9 tetrahydro-pyrano[3,4-b]indole-7-carboxylic acid], the IC50 in assay [1] was 810 nM; in assay [2], 2000 nM.

In the case of `CCCNC(=O)c1cc(C#N)c2c3c([nH]c2c1C)C(CCC)(CC(=O)O)OCC3` (stereo not shown) [Example 354, (5-cyano-8-methyl-1-propyl-7-propylcarbamoyl-1,3,4,9-tetrahydro-pyrano[3,4-b]indol-1-yl)-acetic acid], the IC50 in assay [1] came out at 2000 nM; in assay [2] it was 3000 nM.

As for `CCCC1(CC(=O)O)OCCc2c1[nH]c1c(C)c(C(=O)NC(C)C)cc(C#N)c21` (stereo not shown) [Example 355, (5-cyano-7-isopropylcarbamoyl-8-methyl-1-propyl-1,3,4,9-tetrahydro-pyrano[3,4-b]indol-1-yl)-acetic acid], the IC50 was 2900 nM in assay [1] and 5100 nM in assay [2].

In the case of `CCCC1(CC(=O)O)OCCc2c1[nH]c1c(C)c(C(=O)NC)cc(C#N)c21` (stereo not shown) [Example 357, (5-cyano-8-methyl-7-methylcarbamoyl-1-propyl-1,3,4,9-tetrahydro-pyrano[3,4-b]indol-1-yl)-acetic acid], the half-inhibitory concentration (IC50) turned out to be 970 nM in assay [1] and 1300 nM in assay [2].

For the compound `CCCC1(CC(=O)O)OCCc2c1[nH]c1c(C)c(C(=O)N(C)C)cc(C#N)c21` (stereo not shown) [Example 358, (5-cyano-8-methyl-7-dimethylcarbamoyl-1-propyl-1,3,4,9-tetrahydro-pyrano[3,4-b]indol-1-yl)-acetic acid], the IC50 in assay [1] worked out at 20000 nM; in assay [2], 16000 nM.

As for `CCCOc1cc(C#N)c2c3c([nH]c2c1C)C(CCC)(CC(=O)O)OCC3` (stereo not shown) [Example 359, (5-cyano-8-methyl-7-propoxy-1-propyl-1,3,4,9-tetrahydro-pyrano[3,4-b]indol-1-yl)-acetic acid], the concentration for half-maximal inhibition (IC50) in assay [1] and in assay [2] was 70 nM in each case.

Turning to `CCCOc1cc(C#N)c2c3c([nH]c2c1C)[C@@](CCC)(CC(=O)O)OCC3` [Example 360, (1R)-(5-cyano-8-methyl-7-propoxy-1-propyl-1,3,4,9-tetrahydro-pyrano[3,4-b]indol-1-yl)-acetic acid], the figures for the 50% inhibitory concentration (IC50) in assay [1] and in assay [2] were 40 nM and 90 nM, respectively.

`CCCOc1cc(C#N)c2c3c([nH]c2c1C)[C@](CCC)(CC(=O)O)OCC3` [Example 361, (1S)-(5-cyano-8-methyl-7-propoxy-1-propyl-1,3,4,9-tetrahydro-pyrano[3,4-b]indol-1-yl)-acetic acid]: the IC50 worked out at 770 nM in assay [1] and 1800 nM in assay [2].

`CCCC1(CC(=O)O)OCCc2c1[nH]c1c(C)c(OC)cc(C#N)c21` (stereo not shown) [Example 363, (5-cyano-7-methoxy-8-methyl-1-propyl-1,3,4,9-tetrahydro-pyrano[3,4-b]indol-1-yl)-acetic acid]: the IC50 in assay [1] was found to be 130 nM; in assay [2] it was 360 nM.

As for `CCCC1(CC(=O)O)OCCc2c1[nH]c1c(C)c(OC(C)C)cc(C#N)c21` (stereo not shown) [Example 364, (5-cyano-7-isopropoxy-8-methyl-1-propyl-1,3,4,9-tetrahydro-pyrano[3,4-b]indol-1-yl)-acetic acid], the IC50 in assay [1] was 220 nM; in assay [2], 480 nM.

For `CCCCOc1cc(C#N)c2c3c([nH]c2c1C)C(CCC)(CC(=O)O)OCC3` (stereo not shown) [Example 365, (7-butoxy-5-cyano-8-methyl-1-propyl-1,3,4,9-tetrahydro-pyrano[3,4-b]indol-1-yl)-acetic acid], the IC50 was 60 nM in assay [1] and 100 nM in assay [2].

Take `CCCC1(CC(=O)O)OCCc2c1[nH]c1c(C)c(OCCC(C)(C)C)cc(C#N)c21` (stereo not shown) [Example 366, [5-cyano-7-(3,3-dimethyl-butoxy)-8-methyl-1-propy-1,3,4,9-tetrahydro-pyrano[3,4-b]indol-1-yl]-acetic acid]: the IC50 in assay [1] was determined as 550 nM; in assay [2], 1700 nM.

`CCCC1(CC(=O)O)OCCc2c1[nH]c1c(C)c(OCc3cccc(F)c3)cc(C#N)c21` (stereo not shown) [Example 367, [5-cyano-7-(3-fluoro-benzyloxy)-8-methyl-1-propyl-1,3,4,9-tetrahydro-pyrano[3,4-b]indol-1-yl]acetic acid]: the IC50 was 90 nM in assay [1] and 80 nM in assay [2].
